US20200369626A1 (Washington University, priority 2019, published 2020)
Like-named read-outs stand apart in the source and are kept apart here.

Tests used:
S1PR2 = target: T1, S1PR2 (Homo sapiens, UniProt O95136); assay: competitive [^32P]S1P binding assay on cell membranes, S1PR2
T1 construct: purchased

S1PR3 = target: T2, S1PR3 (Homo sapiens, UniProt Q99500); assay: competitive [^32P]S1P binding assay on cell membranes, S1PR3; conditions: Table 5
T2 construct: purchased
Protocol: (§1) The test compounds were dissolved in DMSO and diluted into test samples with increasing concentrations with assay buffer. Commercial cell membranes expressing recombinant human S1PR were diluted with assay buffer to make a 20-40 μg/mL of solution. […] The plate was incubated for 60 min at room temperature with shaking and terminated by collecting the membranes onto 96-well glass fiber (GF/B) filtration plates (Millipore, Billerica, Mass.). Each filter was washed with 200 μL of assay buffer for a total of five washes. The filter bound radionuclide was measured by a Beckman LS 3801 scintillation counter using Cherenkov counting. The IC50 values were fitted from GraphPad Prism 6 using one site Nonlinear Regression.

S1PR1 = target: T3, S1PR1 (Homo sapiens, UniProt P21453); assay: competitive [^32P]S1P binding assay on cell membranes, S1PR1; conditions: Table 5
T3 construct: purchased
Protocol: as §1

T2 sequence (Q99500 whole entry): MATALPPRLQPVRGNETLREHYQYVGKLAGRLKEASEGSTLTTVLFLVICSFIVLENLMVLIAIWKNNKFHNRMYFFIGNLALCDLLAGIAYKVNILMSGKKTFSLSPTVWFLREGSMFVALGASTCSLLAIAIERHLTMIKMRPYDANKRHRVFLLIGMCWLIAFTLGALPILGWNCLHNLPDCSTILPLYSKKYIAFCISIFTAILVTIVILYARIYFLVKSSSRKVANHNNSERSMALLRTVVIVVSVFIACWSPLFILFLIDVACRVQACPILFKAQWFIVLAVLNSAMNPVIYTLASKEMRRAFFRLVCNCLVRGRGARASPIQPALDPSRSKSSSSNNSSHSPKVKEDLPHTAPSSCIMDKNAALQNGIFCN
T1 sequence (O95136 whole entry): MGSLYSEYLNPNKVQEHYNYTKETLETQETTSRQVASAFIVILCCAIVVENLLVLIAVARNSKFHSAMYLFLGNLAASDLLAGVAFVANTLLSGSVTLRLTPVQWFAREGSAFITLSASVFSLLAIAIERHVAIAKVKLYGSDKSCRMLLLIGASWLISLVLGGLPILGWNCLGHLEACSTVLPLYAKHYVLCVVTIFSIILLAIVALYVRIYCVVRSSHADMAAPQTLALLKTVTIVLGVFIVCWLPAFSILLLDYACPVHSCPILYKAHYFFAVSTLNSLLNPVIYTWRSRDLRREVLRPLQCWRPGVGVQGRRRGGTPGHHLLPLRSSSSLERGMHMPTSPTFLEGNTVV
T3 sequence (P21453 whole entry): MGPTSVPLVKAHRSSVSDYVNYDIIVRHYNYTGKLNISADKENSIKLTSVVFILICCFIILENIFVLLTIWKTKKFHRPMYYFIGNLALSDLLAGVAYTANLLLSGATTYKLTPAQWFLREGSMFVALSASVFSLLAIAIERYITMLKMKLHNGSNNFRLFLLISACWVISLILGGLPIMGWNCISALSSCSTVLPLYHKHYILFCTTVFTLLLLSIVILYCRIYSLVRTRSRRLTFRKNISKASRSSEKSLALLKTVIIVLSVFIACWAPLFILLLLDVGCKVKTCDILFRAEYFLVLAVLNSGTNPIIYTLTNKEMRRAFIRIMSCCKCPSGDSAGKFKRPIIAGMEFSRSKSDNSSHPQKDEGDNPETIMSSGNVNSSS

Row | SMILES | IC50 (S1PR2; Table 5, read-out: IC50 S1PR2) [µM] | further results
1 | CCC(CC)CC1(O)CCN(C(=O)Nc2cc(Oc3ccc(F)cc3)cc(C(F)(F)F)c2)CC1 [Compound 17c, 4-(2-Ethylbutyl)-N-(3-(4-fluorophenoxy)-5-(trifluoromethyl)phenyl)-4-hydroxypiperidine-1-carboxamide] |  | melting point: 108 to 111 °C; IC50 (S1PR2; [^32P]S1P competition, IC50 ± SD, second Table 1, read-out: S2PR2 IC50): 0.362 µM
2 | CCC(CC)CC1(O)CCN(C(=O)Nc2cc(Oc3ccc(F)cc3)cc(Oc3ccc(OC)cc3)c2)CC1 [Compound 28a, 4-(2-Ethylbutyl)-N-(3-(4-fluorophenoxy)-5-(4-methoxyphenoxy)phenyl)-4-hydroxypiperidine-1-carboxamide] |  | melting point: 79 to 80 °C; IC50 (S1PR2; [^32P]S1P competition, read-out: IC50 value, S1PR2 binding): 0.189 µM
3 | CC(C)CC1(O)CCN(C(=O)Nc2cc(Oc3ccc(F)cc3)cc(Oc3ccc(C(=O)NCCF)cc3)c2)CC1 [Compound 28f, N-(3-(4-((2-fluoroethyl)carbamoyl)phenoxy)-5-(4-fluorophenoxy)phenyl)-4-hydroxy-4-isobutylpiperidine-1-carboxamide] |  | melting point: 81 to 83 °C
4 | CNC(=O)c1ccc(Oc2cc(NC(=O)N3CCC(O)(CC(C)C)CC3)cc(C(F)(F)F)c2)cc1 [TZ51-024] | 0.284 ± 0.027 | IC50 (S1PR3): > 1 µM; IC50 (S1PR1): > 1 µM
5 | CC(C)CC1(O)CCN(C(=O)Nc2cc(Oc3ccc(F)cc3)cc(C(F)(F)F)c2)CC1 [TZ51-032] | 0.165 ± 0.035 | IC50 (S1PR3): > 1 µM; IC50 (S1PR1): > 1 µM
6 | CCC(CC)CC1(O)CCN(C(=O)Nc2cc(Oc3ccc(S(C)(=O)=O)cc3)cc(C(F)(F)F)c2)CC1 [TZ51-033] | 0.296 ± 0.032 | IC50 (S1PR3): > 1 µM; IC50 (S1PR1): > 1 µM
7 | CC(C)CC1(O)CCN(C(=O)Nc2cc(Oc3ccc(S(C)(=O)=O)cc3)cc(C(F)(F)F)c2)CC1 [TZ51-035] | 0.27 ± 0.072 | IC50 (S1PR3): > 1 µM; IC50 (S1PR1): > 1 µM
8 | CCC(CC)CC1(O)CCN(C(=O)Nc2cc(Oc3ccc(F)cc3)cc(Oc3ccc(C(=O)NCCF)cc3)c2)CC1 [TZ57-028] |  | IC50 (S1PR3): > 1 µM; IC50 (S1PR1): > 1 µM
9 | CC(C)CC1(O)CCN(C(=O)Nc2cc(Oc3ccc(F)cc3)cc(Oc3ccc(C(=O)NCCF)cc3)c2)CC1 [TZ57-029] | 0.195 ± 0.036 | IC50 (S1PR3): > 1 µM; IC50 (S1PR1): > 1 µM
10 | CC(C)CC1(O)CCN(C(=O)Nc2cc(Oc3ccc(F)cc3)cc(Sc3ccc(S(C)(=O)=O)cc3)c2)CC1 [TZ57-031] |  | IC50 (S1PR3): > 1 µM; IC50 (S1PR1): > 1 µM
11 | CCC(CC)CC1(O)CCN(C(=O)Nc2cc(Oc3ccc(F)cc3)cc(Sc3ccc(S(C)(=O)=O)cc3)c2)CC1 [TZ57-032] |  | IC50 (S1PR3): > 1 µM; IC50 (S1PR1): > 1 µM
12 | CC(C)CC1(O)CCN(C(=O)Nc2cc(Oc3ccc(OCCF)cc3)cc(Oc3ccc(S(C)(=O)=O)cc3)c2)CC1 [TZ57-033] | 0.525 ± 0.119 | IC50 (S1PR3): > 1 µM; IC50 (S1PR1): > 1 µM
13 | CCC(CC)CC1(O)CCN(C(=O)Nc2cc(Oc3ccc(OCCF)cc3)cc(Oc3ccc(S(C)(=O)=O)cc3)c2)CC1 [TZ57-034] | 0.418 ± 0.118 | IC50 (S1PR3): > 1 µM; IC50 (S1PR1): > 1 µM
14 | CCC(CC)CC1(O)CCN(C(=O)Nc2cc(Oc3ccc(F)cc3)cc(Oc3ccc4c(c3)CCN(C)C4=O)c2)CC1 [TZ57-089] | 0.073 ± 0.011 | IC50 (S1PR3): > 1 µM; IC50 (S1PR1): > 1 µM
15 | CCC(CC)CC1(O)CCN(C(=O)Nc2cc(Oc3ccc(F)cc3)cc(Oc3ccc4c(c3)CCNC4=O)c2)CC1 [TZ57-090] | 0.03 ± 0.004 | IC50 (S1PR3): > 1 µM; IC50 (S1PR1): > 1 µM
16 | COc1ccc(NC(=O)Cn2c(=O)c3ccccc3n(CC(=O)Nc3cc(Cl)c(OC)cc3OC)c2=O)cc1 [TZ59-104, N-(5-Chloro-2,4-dimethoxyphenyl)-2-(3-(2-((4-methoxyphenyl)amino)-2-oxoethyl)-2,4-dioxo-3,4-dihydroquinazolin-1(2H)-yl)acetamide] | 0.0057 ± 0.0005 | IC50 (S1PR3): > 1 µM; IC50 (S1PR1): > 1 µM
17 | COc1cc(OC)c(NC(=O)Cn2c(=O)n(CC(=O)N(C)C)c(=O)c3ccccc32)cc1Cl [TZ59-136, 2-(1-(2-((5-Chloro-2,4-dimethoxyphenyl)amino)-2-oxoethyl)-2,4-dioxo-1,4-dihydroquinazolin-3(2H)-yl)-N,N-dimethylacetamide] | 0.175 ± 0.013 | 
18 | COc1ccccc1NC(=O)Cn1c(=O)[nH]c2ccccc2c1=O [TZ62-004] | > 1 | 
19 | COc1cc(OC)c(NC(=O)Cn2c(=O)n(CC(=O)NCCO)c(=O)c3ccccc32)cc1Cl [TZ62-007] | > 1 | 
20 | COc1ccccc1NC(=O)Cn1c(=O)c2ccccc2n(CC(=O)Nc2cc(Cl)ccc2OC)c1=O [TZ62-008] | 0.0549 ± 0.006 | 
21 | COc1ccccc1NC(=O)Cn1c(=O)c2ccccc2n(Cc2ccc(F)cc2)c1=O [TZ62-014] | > 1 | 
22 | COc1ccccc1NC(=O)Cn1c(=O)c2ccccc2n(CC(=O)c2ccc(F)cc2)c1=O [TZ62-016] | > 1 | 
23 | COc1cc(OC)c(NC(=O)CN2C(=O)N(CC(=O)O)Cc3ccccc32)cc1Cl [TZ62-017] | > 1 | 
24 | COc1cc(OC)c(NC(=O)CN2C(=O)N(CC(=O)Nc3ccccc3OC)Cc3ccccc32)cc1Cl [TZ62-018] | > 1 | 
25 | COc1ccc(C(=O)Cn2c(=O)n(CC(=O)Nc3ccccc3OC)c(=O)c3ccccc32)cc1 [TZ62-019] | > 1 | 
26 | COc1ccccc1NC(=O)Cn1c(=O)c2ccccc2n(CC(=O)c2ccccc2OC)c1=O [TZ62-020] | > 1 | 
27 | COc1ccc(C(=O)Cn2c(=O)n(CC(=O)Nc3ccccc3OC)c(=O)c3ccccc32)cc1Cl [TZ62-026] | 0.287 ± 0.069 | 
28 | CCOc1ccc(C(=O)Cn2c(=O)n(CCCC(=O)NC3CCCC3)c(=O)c3cc(Cl)ccc32)cc1Cl [TZ62-038] | 0.293 ± 0.069 | 

Row | SMILES | IC50 (S1PR2; Table 5, read-out: IC50 S1PR2) [µM] | further results
29 | COc1ccc(C(=O)Cn2c(=O)n(CCCC(=O)NC3CCCC3)c(=O)c3cc(Cl)ccc32)cc1Cl [TZ62-039] | > 1 | 
30 | CCOc1ccc(C(=O)Cn2c(=O)n(CCCC(=O)NC3CCCC3)c(=O)c3ccccc32)cc1Cl [TZ62-048] | 0.085 ± 0.01 | 
31 | COc1ccc(C(=O)Cn2c(=O)n(CCCC(=O)NC3CCCC3)c(=O)c3ccccc32)cc1Cl [TZ62-049] | 0.396 ± 0.078 | 
32 | CCOc1ccc(C(=O)Cn2c(=O)n(CCCC(=O)N3CCCC3)c(=O)c3ccccc32)cc1Cl [TZ62-050] | > 1 | 
33 | COc1ccc(C(=O)Cn2c(=O)n(CCCC(=O)N3CCCC3)c(=O)c3ccccc32)cc1Cl [TZ62-051] | > 1 | 
34 | CCOc1ccc(C(=O)Cn2c(=O)n(CCCC(=O)N3CCCC3)c(=O)c3cc(Cl)ccc32)cc1Cl [TZ62-052] | > 1 | 
35 | COc1ccc(C(=O)Cn2c(=O)n(CCCC(=O)N3CCCC3)c(=O)c3cc(Cl)ccc32)cc1Cl [TZ62-053] | > 1 | 
36 | COc1cc(OC)c(NC(=O)Cn2c(=O)n(Cc3ccccc3)c(=O)c3ccccc32)cc1Cl [TZ62-077] | > 1 | 
37 | COc1cc(OC)c(NC(=O)Cn2c(=O)n(CCO)c(=O)c3ccccc32)cc1Cl [TZ62-082] | > 1 | 
38 | COc1cc(OC)c(NC(=O)Cn2c(=O)n(CCF)c(=O)c3ccccc32)cc1Cl [TZ62-083] | > 1 | 
39 | COc1cc(OC)c(NC(=O)Cn2c(=O)n(C)c(=O)c3ccccc32)cc1Cl [TZ62-084] | > 1 | 
40 | CCn1c(=O)c2ccccc2n(CC(=O)Nc2cc(Cl)c(OC)cc2OC)c1=O [TZ62-087] | > 1 | 
41 | COc1cc(OC)c(NC(=O)Cn2c(=O)n(CCCC(=O)NC3CCCC3)c(=O)c3ccccc32)cc1Cl [TZ62-090] | 0.076 ± 0.019 | 
42 | COc1cc(OC)c(NC(=O)Cn2c(=O)n(CCCC(=O)NC3CCCC3)c(=O)c3cc(Cl)ccc32)cc1Cl [TZ62-091] | > 1 | 
43 | O=C(O)Cn1c(=O)c2ccccc2n(CC(=O)Nc2cc(Cl)nc(Cl)c2)c1=O [TZ62-092] | > 1 | 
44 | COc1ccccc1NC(=O)Cn1c(=O)c2ccccc2n(CC(=O)Nc2cc(Cl)nc(Cl)c2)c1=O [TZ62-093] | > 1 | 
45 | CCOc1ccc(C(=O)Cn2c(=O)n(Cc3ccccc3)c(=O)c3ccccc32)cc1Cl [TZ62-097] | > 1 | 
46 | CCOc1ccc(C(=O)Cn2c(=O)n(C)c(=O)c3ccccc32)cc1Cl [TZ62-098] | > 1 | 
47 | CCOc1ccc(C(=O)Cn2c(=O)n(CC)c(=O)c3ccccc32)cc1Cl [TZ62-099] | > 1 | 
48 | CCOc1ccc(C(=O)Cn2c(=O)n(CCF)c(=O)c3ccccc32)cc1Cl [TZ62-100] | > 1 | 
49 | COc1cc(OC)c(NC(=O)Cn2c(=O)n(CCN3CCOCC3)c(=O)c3ccccc32)cc1Cl [TZ62-102] | > 1 | 
50 | CCOc1ccc(C(=O)Cn2c(=O)n(CC(=O)Nc3ccccc3OC)c(=O)c3ccccc32)cc1Cl [TZ62-114] | 0.0498 ± 0.0049 | 
51 | CCOc1ccc(C(=O)Cn2cc(C(=O)O)c(=O)c3ccccc32)cc1Cl [TZ62-120] | 0.27 ± 0.21 | 
52 | COc1ccc(NC(=O)c2cn(CC(=O)Nc3cc(Cl)c(OC)cc3OC)c3ccccc3c2=O)cc1 [TZ62-125] | > 1 | 
53 | COc1ccc2c(c1)c(=O)c1ccccc1n2CC(=O)Nc1cc(Cl)c(OC)cc1OC [TZ65-032] | > 1 | 
54 | COc1cc(OC)c(NC(=O)Cn2c(=O)n(CC(=O)Nc3ccc(I)cc3)c(=O)c3ccccc32)cc1Cl [TZ65-033] | 0.0169 ± 0.0056 | 
55 | COc1cc(OC)c(NC(=O)Cn2c(=O)n(CC(=O)Nc3ccc(OCCF)cc3)c(=O)c3ccccc32)cc1Cl [TZ65-049] | 0.01 ± 0.0024 | 
